Data set [1] has as its target T1, ADAM17 (Homo sapiens, UniProt P78536).
T1 construct: purchased R&D Systems 930-ADB
As to the kind of experiment: ADAM17 glycosylated substrate uHTS/HTS assay. It counts as biochemical. To be noted: original uHTS dose response, 10-point 1:3 dilutions starting at 70 µM. As for the experimental part:
Both assays followed the same general protocol. […] After 30 min incubation at RT, the reactions were started by addition of 2.5 µL of 2x solutions of glycosylated substrate (20 µM). Reactions were incubated at RT for 2 h, after which the fluorescence was measured using Perkin Elmer Viewlux multimode microplate imager (λexcitation = 360 nm, λemission = 460 nm). Final concentration of test compounds in assays was 7.0 µM.
The miniaturized 1536-well plate format ADAM10 and ADAM17 assays were used to screen a collection of ≈370,000 compounds (MLSMR library, provided by the NIH) on the automated Kalypsys/GNF platform at the Scripps Research Institute Molecular Screening Center (SRIMSC, Jupiter, FL. More details at http://hts.florida.scripps.edu/). […] Both uHTS campaigns were run separately but in a similar manner. Briefly, the first step was the primary screen of all MLSMR’s test compounds as singlicate against the ADAM10 or ADAM17 target at a final concentration of 7.0 μM. Next, compounds selected as primary hits were cherry-picked and retested in triplicate against the primary screen target and its anti-target (ADAM17 for the ADAM10 screening effort, and vice-versa) at the same final concentration of 7.0 μM. […] All data generated during this effort were uploaded to the SRIMSC’s institutional screening database (Assay Explorer, Symyx). Sample to background (S/B) ratios, as well as Z and Z′ values were calculated on a per-plate basis as described before. Curve fitting and resulting IC50 determinations were performed as previously reported.

Data set [2] deals with panel of metzincins. As to the kind of experiment: Dose response against a panel of metzincins (MMP, meprin, ADAM assays). The data set is classed as biochemical. To be noted: reordered powder, dilutions starting at 100 µM. As for the experimental part:
Powders for 4 compounds (CID # 3117694, 730037, 3153587, and 236330) were reordered from corresponding vendors and tested in 10-point, 1:3 serial dilutions starting at 100 µM in triplicate against ADAM10 and ADAM17 and a panel of metzincins. We examined the activity and selectivity of lead CID 3117694 using an ADAM10 and 17 HPLC-based assays using glycosylated substrate (Fig. 2A).
All assays followed the same general protocol. 5 µL of 2x enzyme solution (5 nM) in assay buffer (50 mM Tricine, 50 mM NaCl, 10 mM CaCl2, 0.05% Brij-35, pH 7.5) were added to solid bottom black 384 plates (Nunc, cat# 264705). Next, test compounds and pharmacological controls were added to corresponding wells using a 384 pin tool device (V&P Scientific, San Diego). […] Reactions were incubated at RT for 1 h, after which the fluorescence was measured using the Synergy H4 multimode microplate reader (Biotek Instruments) (λexcitation = 324 nm, λemission = 390 nm).
Both assays followed the same general protocol. […] After 30 min incubation at RT, the reactions were started by addition of 5 µL of 2x solutions of substrates (20 µM, mepin α Mca-YVADAPK-K(Dnp); and for meprin β Mca-EDEDED-K(Dnp). Reactions were incubated at RT for 1 h, after which the fluorescence was measured using the Synergy H4 multimode microplate reader (Biotek Instruments) (λexcitation = 324 nm, λemission = 390 nm).

Data set [3] concerns BT474 cells. As to the kind of experiment: Cell toxicity study (CellTiter-Glo), BT474. It counts as cell-based. The following applies: 72 h. As for the experimental part: (§1) Test compounds were solubilized in 100% DMSO and added to polypropylene 384 well plates (Greiner cat# 781280). 1,250 of BT474 or HEK293 cells were plated in 384-well plates in 8 µL of serum-free media (HybriCare for BT474, EMEM for HEK293). Test compounds and pharmacological assay control (lapatinib) were prepared as 10-point, 1:3 serial dilutions starting at 10 mM, then added to the cells using the pin tool mounted on Biomek NX^P. Plates were incubated for 72 h at 37 °C, 5% CO2 and 95% RH. After incubation, 8 µL of CellTiter-Glo® (Promega cat# G7570) was added to each well, and incubated for 15 min at room temperature. Luminescence was recorded using a Biotek Synergy H4 multimode microplate reader. Viability was expressed as a percentage relative to wells containing media only (0%) and wells containing cells treated with DMSO only (100%). Three parameters were calculated on a per-plate basis: (a) the signal-to-background ratio (S/B); (b) the coefficient for variation [CV; CV = (standard deviation/mean) × 100)] for all compound test wells; and (c) the Z′-factor. IC50 values were calculated by fitting normalized data to sigmoidal log vs. response equation utilizing non-linear regression analysis from GraphPad Prizm 6.

Data set [4] has as its system HEK293 cells. The experiment in a line: Cell toxicity study (CellTiter-Glo), HEK293. The data set is classed as cell-based. As to the method: as §1
For orientation: ATP-based viability assays read luminescence as a measure of living cells.

By IC50 is commonly meant the concentration that gives 50% inhibition.

T1 sequence (P78536 215-824): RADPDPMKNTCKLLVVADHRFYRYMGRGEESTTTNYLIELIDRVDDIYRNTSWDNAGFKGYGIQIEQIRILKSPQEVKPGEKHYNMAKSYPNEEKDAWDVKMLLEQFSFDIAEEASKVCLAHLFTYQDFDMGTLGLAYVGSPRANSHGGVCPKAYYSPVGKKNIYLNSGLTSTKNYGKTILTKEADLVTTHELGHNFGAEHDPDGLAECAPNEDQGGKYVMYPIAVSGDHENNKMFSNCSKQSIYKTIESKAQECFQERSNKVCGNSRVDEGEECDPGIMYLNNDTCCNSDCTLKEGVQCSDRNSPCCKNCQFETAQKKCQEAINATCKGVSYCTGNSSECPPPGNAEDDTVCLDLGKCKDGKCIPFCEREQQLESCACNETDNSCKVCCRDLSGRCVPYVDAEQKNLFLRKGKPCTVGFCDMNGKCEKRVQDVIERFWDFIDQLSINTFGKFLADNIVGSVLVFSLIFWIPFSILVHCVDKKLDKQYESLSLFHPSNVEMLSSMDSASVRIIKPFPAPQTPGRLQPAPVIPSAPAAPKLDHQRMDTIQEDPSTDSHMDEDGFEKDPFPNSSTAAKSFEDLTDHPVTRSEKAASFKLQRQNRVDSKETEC

As for `COc1cccc(C(=O)NNC(=O)C(=O)Nc2ccc(C)c(Cl)c2)c1` [CID 3117694], in data set [1], the IC50 was over 70 µM. In addition, in data set [2], the “inhibition of 11 tested metzincins (including ADAM10 and ADAM17)” value is given as “only ADAM10 was appreciably inhibited”. In addition, the “effect on viability of BT474 cells” value in data set [3] is on record as “did not affect viability”. The “effect on HEK293 cell viability” value in data set [4] (100 µM) was “moderate effect”. In addition, in data set [4] (72 h), the “effect on viability of HEK293 cells” value is listed as “did not affect viability”.

The values above are taken from article PMC5431342, “Discovery of an enzyme and substrate selective inhibitor of ADAM10 using an exosite-binding glycosylated substrate” (Scientific Reports, 2016).
